# Reference: US20070015779A1, “COMPOSITIONS AND TREATMENTS FOR INHIBITING KINASE AND/OR HMG-COA REDUCTASE” (priority 2005, published 2007)
# Values joined by “and” are separate entries in the source; they are usually repeats but may differ in a detail not shown here. Identical values can stand only once. Counter-ions that a name gives are not always drawn.
# Tests used:
# [1] = system: oxazolone-induced mouse ear swelling; assay: Model for inhibition of topical inflammation (oxazolone-induced mouse ear swelling); type: in vivo; details: BALB/c mice, ear thickness 24 hours after oxazolone challenge
# Protocol: Model for Inhibition of Topical Inflammation. […] Left ears were untreated. The thickness of both ears of each animal was measured with a Dyer model micrometer gauge 24 hours after oxazolone challenge, and the net increase in thickness of right ears versus left ears was calculated for each animal. Percent inhibition was calculated according to the formula: [(Iv−It)/Iv]×100, where Iv and It respectively refer to the average net increase in right ear thickness (mm) for vehicle and candidate compound treated mice.
# [2] = target: T1, human recombinant p38α protein kinase (Homo sapiens, UniProt Q16539); assay: Human p38α MAP kinase inhibition assay (cell-free); type: biochemical; details: inhibition of phosphorylation of myelin basic protein by recombinant human p38α MAP kinase by 50%; Table III; read-out: IC50 p38α MAPK
# T1 construct: purchased UBI (Upstate Biotechnology) 14-251; host or cells: E. coli
# T1 sequence (Q16539 whole entry): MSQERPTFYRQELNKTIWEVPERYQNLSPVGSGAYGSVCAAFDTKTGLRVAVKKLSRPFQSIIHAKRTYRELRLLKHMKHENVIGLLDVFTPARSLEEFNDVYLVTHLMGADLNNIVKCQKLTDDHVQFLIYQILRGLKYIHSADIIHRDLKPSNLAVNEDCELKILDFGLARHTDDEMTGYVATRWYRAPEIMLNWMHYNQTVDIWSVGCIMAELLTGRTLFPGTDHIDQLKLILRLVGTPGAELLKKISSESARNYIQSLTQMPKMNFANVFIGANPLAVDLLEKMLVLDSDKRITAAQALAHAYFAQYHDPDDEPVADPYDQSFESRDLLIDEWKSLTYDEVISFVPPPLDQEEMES
# Protocol: In vitro cell-free p38α MAP kinase inhibition assays were conducted by the method as described in Clerk et al., FEBS Lett., 426:93-96 (1998) for a number of lactones in formulas I/IIa/IIb. Briefly, human recombinant p38α protein kinase expressed in E. coli (UBI #14-251) was used. Myelin basic protein (MBP, UBI #13-110) was employed as substrate, and microtiter plate wells were coated with MBP (0.01 mg/ml) overnight at 4° C. Candidate compound and/or vehicle was preincubated with 0.075 μg/mL enzyme in modified HEPES buffer pH 7.4 at 25° C. for 15 minutes. The reaction was initiated by addition of 100 μM ATP and allowed to proceed for another 60 minutes. The reaction was terminated by aspirating the solution. Phosphorylated MBP was detected by incubation with a mouse monoclonal IgG2a anti-phosphoMBP antibody. Bound anti-phosphoMBP antibody was quantitated by incubation with a HRP conjugated goat anti-mouse IgG.
# [3] = target: T2, rat liver HMG-CoA reductase (Rattus norvegicus, UniProt P51639); assay: Cell-free HMG-CoA reductase inhibition assay; type: biochemical; details: concentration required to inhibit rat liver HMG-CoA reductase by 50%; read-out: IC50 HMG-CoA R
# T2 sequence (P51639 1-887): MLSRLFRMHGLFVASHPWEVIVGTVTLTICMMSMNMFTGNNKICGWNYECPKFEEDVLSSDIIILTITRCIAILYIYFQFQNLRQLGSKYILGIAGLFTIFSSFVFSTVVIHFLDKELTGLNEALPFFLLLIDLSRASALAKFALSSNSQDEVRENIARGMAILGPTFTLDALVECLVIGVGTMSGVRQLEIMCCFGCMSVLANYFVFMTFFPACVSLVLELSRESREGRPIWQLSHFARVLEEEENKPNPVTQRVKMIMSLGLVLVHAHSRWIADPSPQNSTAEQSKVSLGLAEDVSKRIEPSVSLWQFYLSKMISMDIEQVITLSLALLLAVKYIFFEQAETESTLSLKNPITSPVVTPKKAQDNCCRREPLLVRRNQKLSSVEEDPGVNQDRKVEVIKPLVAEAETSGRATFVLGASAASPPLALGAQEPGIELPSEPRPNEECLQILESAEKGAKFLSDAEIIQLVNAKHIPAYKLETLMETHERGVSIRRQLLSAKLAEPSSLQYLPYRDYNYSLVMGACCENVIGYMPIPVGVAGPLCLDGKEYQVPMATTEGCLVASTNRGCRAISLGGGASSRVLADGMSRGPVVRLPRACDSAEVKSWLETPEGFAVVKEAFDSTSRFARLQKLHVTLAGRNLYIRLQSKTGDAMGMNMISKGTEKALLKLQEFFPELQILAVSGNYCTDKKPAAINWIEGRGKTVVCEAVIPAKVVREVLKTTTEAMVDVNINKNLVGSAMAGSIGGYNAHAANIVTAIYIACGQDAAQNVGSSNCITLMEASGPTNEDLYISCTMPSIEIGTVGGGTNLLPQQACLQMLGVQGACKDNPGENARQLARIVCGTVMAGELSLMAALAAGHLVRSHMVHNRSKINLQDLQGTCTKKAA
# Protocol: An example of a cell-free HMG-CoA reductase assay involves radiometric procedures described in Shum et al., Ther. Drug Monit. 20:41-49 (1998), incorporated herein by reference. Briefly, about 150 μg/mL of HMG-CoA reductase can be incubated with a candidate compound, together with about 12 μM [^14C]HMG-CoA and about 200 μM NADPH in about 200 μL 0.2M phosphate buffer (pH about 7.2) for about 0.5 h at about 37° C. The [^14C]mevalonate that forms can be converted under acidic conditions to [^14C]mevalonolactone and separated from un-reacted substrate, for example, by ion-exchange chromatography, and then quantified, for example, by liquid scintillation counting.
# [4] = system: LPS-induced TNF-α release from human peripheral blood mononuclear cells; assay: Whole cell LPS-stimulated TNF-α release assay; type: cell-based; details: inhibition of LPS-induced TNF-α release from human peripheral blood mononuclear cells by 50%
# Protocol: The procedure as described in Welker et al., Int. Arch. Allergy and Immunol. 109:110-115 (1996) can be followed. Briefly, a candidate compound and/or vehicle can be preincubated with human peripheral blood mononuclear leukocytes (PBML, 5×10^5/ml) cells in AIM-V medium pH 7.4 for 2 hours. Lipopolysaccharide (LPS, 25 ng/ml) can be added to stimulate the cells, which can be incubated overnight at 37° C. TNF-α cytokine levels in the conditioned medium can then be quantitated using a sandwich ELISA kit.
# [5] = dose 2 × 0.3 mg topical to right ear
# [6] = dose 2 × 1 mg topical to right ear
# [7] = dose 2 × 2 mg topical to right ear
SMILES,"% Inh. [1, 5] [%]","% Inh. [1, 7] [%]",further results
CC[C@H](C)C(=O)O[C@H]1C[C@H](O)C=C2C=C[C@H](C)[C@H](CC[C@@H](O)C[C@@H](O)CC(=O)O)[C@H]21 [Pravastatin sodium],24,,
"CCC(C)c1nn(-c2ccnc(Nc3ccccc3)c2)c(-c2ccc(F)cc2)c1/C=C/[C@@H](O)C[C@@H](O)CC(=O)O (stereo partly drawn) [Example 10a, (3R,5S,E)-7-(3-sec-butyl-5-(4-fluorophenyl)-1-(2-(phenylamino)pyridin-4-yl)-1H-pyrazol-4-yl)-3,5-dihydroxyhept-6-enoic acid calcium salt]",,,IC50 [2]: 11 µM; IC50 [3]: 0.003 µM; IC50 [4]: 21 µM
COc1ccc2c(c1)c(CC(=O)O)c(C)n2C(=O)c1ccc(Cl)cc1 [Indomethacin],44,,
CC(C)c1nc(N(C)S(C)(=O)=O)nc(-c2ccc(F)cc2)c1/C=C/[C@@H](O)C[C@@H](O)CC(=O)O [Rosuvastatin sodium],20,,
CC(C)c1c(C(=O)Nc2ccccc2)c(-c2ccccc2)c(-c2ccc(F)cc2)n1CC[C@@H]1C[C@@H](O)CC(=O)O1 [Atorvastatin lactone],40,50,"% Inh. ([1]; dose 2 × 0.3 mg topical to right ear, listed as atorvastatin lactone): 50% and 58% and 40%; % Inh. [1, 6]: 58%"
O=C([O-])C[C@H](O)C[C@H](O)/C=C/c1c(C2CC2)nc2ccccc2c1-c1ccc(F)cc1.O=C([O-])C[C@H](O)C[C@H](O)/C=C/c1c(C2CC2)nc2ccccc2c1-c1ccc(F)cc1.[Ca+2] [Pitavastatin calcium],9,60,
"O=C(O)C[C@H](O)C[C@H](O)CCc1c(-c2ccccc2)nn(-c2ccnc(Nc3ccccc3)n2)c1-c1ccccc1 [Example 11c, (3R,5R)-7-(3,5-diphenyl-1-(2-(phenylamino)pyrimidin-4-yl)-1H-pyrazol-4-yl)-3,5-dihydroxyheptanoic acid]",,,IC50 [4]: 18 µM
CC(C)n1c(/C=C/C(O)CC(O)CC(=O)O)c(-c2ccc(F)cc2)c2ccccc21 (centres unmarked) [Fluvastatin sodium],28,,
CC(C)c1c(C(=O)Nc2ccccc2)c(-c2ccccc2)c(-c2ccc(F)cc2)n1CC[C@@H](O)C[C@@H](O)CC(=O)O [Atorvastatin sodium],9,63,"% Inh. [1, 6]: 31%"
